Results published in US8247429B2, “Tricyclic compound and pharmaceutical use thereof” (Takeda Pharmaceutical Company Limited, priority 2006, dated 2012).
pIC50: −log10 of the molar value.

Experiments:
[1] = target: T1, human melatonin 1 receptors (human MT1 receptors) (Homo sapiens, UniProt P48039); test: Melatonin receptor binding inhibitory test (2-[125I] Iodomelatonin), MT1; details: membrane fraction of CHO-hMelR7 cells, 25° C. for 2.5 hr
T1 construct: expressed in transfected cells; membrane fraction used
T1 sequence (P48039 whole entry): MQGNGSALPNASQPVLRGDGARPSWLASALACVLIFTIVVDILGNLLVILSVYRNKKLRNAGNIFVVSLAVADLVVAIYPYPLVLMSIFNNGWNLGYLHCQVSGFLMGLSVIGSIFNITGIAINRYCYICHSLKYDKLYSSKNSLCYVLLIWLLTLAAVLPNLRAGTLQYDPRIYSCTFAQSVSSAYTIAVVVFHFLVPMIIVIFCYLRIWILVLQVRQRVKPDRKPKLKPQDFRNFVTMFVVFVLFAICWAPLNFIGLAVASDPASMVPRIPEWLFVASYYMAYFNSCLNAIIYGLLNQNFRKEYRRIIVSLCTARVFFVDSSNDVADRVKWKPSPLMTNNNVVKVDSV
Procedure: (§1) Melatonin receptor binding inhibitory test
(1) Preparation of CHO-hMelR7 Cells Expressing Human Melatonin 1 Receptors
A cDNA fragment (SEQ ID NO: 1) encoding full-length of human melatonin 1 receptors (human MT1 receptors) was incorporated into expression vector pAKKO-111H (former name pAKKO1.11H; Biochim Biophys Acta. Vol. 1219(2), pp. 251-259, 1994) to give plasmid pAKKO-hMelR7 for animal cell expression. CHO/dhfr-cells (ATCC, #CRL-9096) were plated at a concentration of 0.3×10^6 cells/dish in a 6 cm culture dish (Becton Dickinson), and cultured under the conditions of 37° C., 5% CO2 for 48 hr. The cells were transfected with pAKKO-hMelR7 plasmid DNA (5 μg) using Cellphect Transfection Kit (Amersham, #27-9268-01). The transfected cells were cultured in Dulbecco's modified Eagle medium (DMEM) (Sigma, #D6046) containing 10% dialyzed FBS (Biowest, #S180D), 1× Non-Essential Amino Acid (Invitrogen, #11140-050) and 50 μg/mL Gentamycin (Invitrogen, #15750-060), and the cell line that stably expressed the plasmid gene was selected. By a receptor binding assay using 2-[^125I] Iodomelatonin, CHO-hMelR7 cell line showing specific binding of 2-[^125I] Iodomelatonin was selected from the obtained clones.
(§2) (3) Preparation of Cellular Membrane Fraction of CHO Cell (CHO-hMelR7 and CHO-hMT2) Stably Expressing Human MT1 and MT2 Receptors
(§3) CHO-hMelR7 and CHO-hMT2 cells were plated using Cellfactory (Nunc, #170009) under the conditions of 1×10^8 cells/2000 mL/flask. The cells were grown to confluent, and recovered by the following method. As the medium for CHO-hMelR7 and CHO-hMT2, MEM α containing 10% FBS and penicillin/streptomycin was used. […] of geneticin was added to the medium for CHO-hMT2.
(§4) The medium was discarded, cells were washed twice with 200 mL of EDTA/PBS(−), 200 mL of EDTA/PBS(−) was further added, and the cells were stood still at room temperature for 20 min until they were released. The cells were recovered in four 50 mL tubes (Becton Dickinson, #352070), and centrifuged at 1,500 rpm for 10 min at 4° C. using a low speed cooling centrifuge (Hitachi, CF7D2). The supernatant was discarded, the pellets in the four tubes were suspended in 10 mL of PBS(−), and combined in one tube (Becton Dickinson, #352070). The mixture was further centrifuged at 1,500 rpm for 10 min at 4° C., and the obtained pellets were suspended in 20 mL of ice-cooled homogenizing buffer [10 mM NaHCO3, 5 mM EDTA, Protease inhibitor Complete (Roche), pH 7.4]. The cell suspension was homogenized 3 times using a polytron homogenizer at 20,000 rpm for 30 sec. The obtained homogenate was centrifuged (2,000 rpm, 10 min, 4° C.) using a low speed cooling centrifuge. The supernatant was recovered in an ultracentrifugation tube and ultracentrifuged (40,000 rpm, 60 min, 4° C.) using an ultracentrifuge (Beckman, L-90K). To the obtained pellets was added a suspending buffer [50 mM Tris-HCl, 1 mM EDTA, Protease inhibitor Complete (Roche), pH 7.4], and the pellets were suspended by pipetting. The protein concentration of this suspension was measured, diluted to 2 mg/mL to give cellular membrane fractions of CHO-hMelR7 and CHO-hMT2 cells. The membrane fractions were dispensed to 1.5 mL tubes (Eppendorf, #0030120.086) by 100 μL, preserved in a freezer (−80° C.) and used for a binding assay. Protein was quantified using BCA protein assay kit (Pierce) with BSA as the standard.
(§5) (4) Preparation of Membrane Fraction Suspension
(§6) Immediately before use, the membrane fractions of CHO-hMelR7 and CHO-hMT2 cells of the above-mentioned (3) were diluted 20-fold with assay buffer (50 mM Tris-HCl, pH 7.7).
(§7) (5) Preparation of 2-[^125I] Iodomelatonin Solution
(§8) 2-[^125I] Iodomelatonin (#NEX236, PerkinElmer) was diluted with the assay buffer to 400 pM for MT1 and 1 nM for MT2.
(§9) The assay buffer (80 μL) of the above-mentioned (4) was added to each well of a 96-well plate (type 3363, Corning). […]

[2] = target: T2, human melatonin 2 receptors (human MT2 receptors) (Homo sapiens, UniProt P49286); test: Melatonin receptor binding inhibitory test (2-[125I] Iodomelatonin), MT2; details: membrane fraction of CHO-hMT2 cells, 25° C. for 2.5 hr
T2 construct: expressed in transfected cells; membrane fraction used
T2 sequence (P49286 1-362): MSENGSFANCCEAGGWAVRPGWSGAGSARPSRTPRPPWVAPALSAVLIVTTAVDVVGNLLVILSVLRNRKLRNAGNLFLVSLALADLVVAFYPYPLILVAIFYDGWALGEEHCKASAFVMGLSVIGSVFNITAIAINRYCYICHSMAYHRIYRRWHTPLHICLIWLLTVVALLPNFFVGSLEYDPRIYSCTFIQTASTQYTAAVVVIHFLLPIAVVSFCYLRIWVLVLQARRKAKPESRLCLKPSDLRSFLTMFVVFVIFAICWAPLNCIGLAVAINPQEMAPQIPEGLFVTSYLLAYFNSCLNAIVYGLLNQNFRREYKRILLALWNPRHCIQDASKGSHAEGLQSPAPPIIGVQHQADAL
Procedure: as §1
(2) Preparation of CHO-hMT2 Cells Expressing Human Melatonin 2 Receptors
A cDNA fragment (SEQ ID NO: 2) encoding full-length of human melatonin 2 receptors (human MT2 receptors) was incorporated into expression vector pCMV-Script (Stratagene, #212220) to give the plasmid that was pCMV-human MT2 receptors expression vector for animal cell expression. CHO-K1 cells (ATCC, #CCL-61) were plated at the concentration of 1.5×10^5 cells/cm^2 in a 6 well plate (ASAHI TECHNO GLASS), and cultured under the conditions of 37° C., 5% CO2 for 24 hr. For gene transfection, solution obtained by blending pCMV-human MT2 receptors expression vector (1.9 μg), Lipofectamine Transfection Reagent (Invitrogen, #18324-012) (11.3 μL) and Minimum Essential Medium Eagle (MEM) medium (Sigma, M8042) (93.8 μL), and reacting at room temperature for 20 min was added to the cells per one well. The transfected cells were cultured in MEM medium containing 10% FBS (Life Technology) and 300 μg/mL Geneticin (GIBCO, #10131), and the cell line that stably expressed the plasmid gene was selected. By a receptor binding assay using 2-[^125I] Iodomelatonin, CHO-hMT2 cell line showing specific binding of 2-[^125I] Iodomelatonin was selected from the obtained clones.
as §2, §3, §4, §5, §6, §7, §8, §9

| pIC50 [1] | melting point [°C] | pIC50 [2] | SMILES |
| --- | --- | --- | --- |
| ≥ 7.00 | 177 to 178 | ≥ 7.00 | CC(=O)NCC=C1CCc2c(Cl)cc3nn(C)cc3c21 [Example 30, N-[2-(5-chloro-2-methyl-6,7-dihydrocyclopenta[e]indazol-8(2H)-ylidene)ethyl]acetamide] |
| ≥ 7.00 | 200 to 203 | ≥ 7.00 | CC(=O)NCC=C1CCc2ccc3nn(C)c(C)c3c21 [Example 7, N-[2-(1,2-dimethyl-6,7-dihydrocyclopenta[e]indazol-8(2H)-ylidene)ethyl]acetamide] |

Continued, compound first:

| SMILES | pIC50 [1] | melting point [°C] | pIC50 [2] |
| --- | --- | --- | --- |
| CCC(=O)NCCC1CCc2ccn3nccc3c21 (stereo not drawn) [Example 12, N-[2-(8,9-dihydro-7H-cyclopenta[c]pyrazolo[1,5-a]pyridin-9-yl)ethyl]propanamide] | ≥ 7.00 | 72 to 73 | ≥ 7.00 |
| CC(=O)NCCC1CCc2ccc3nn(C)c(C)c3c21 (stereo not drawn) [Example 8, N-[2-(1,2-dimethyl-2,6,7,8-tetrahydrocyclopenta[e]indazol-8-yl)ethyl]acetamide] | ≥ 7.00 | 146 to 149 | ≥ 7.00 |
| CCC(=O)NCCC1CCc2c(F)cc3nn(C)cc3c21 (stereo not drawn) [Example 29, N-[2-(5-fluoro-2-methyl-2,6,7,8-tetrahydrocyclopenta[e]indazol-8-yl)ethyl]propanamide] | ≥ 7.00 | 117 to 119 | ≥ 7.00 |
